Values quoted from earlier work as cited in patent US12239131B2, “Plant growth regulator concentrate and use thereof” (FINE AGROCHEMICALS LIMITED, priority 2018, dated 2025).

Q: Which pKa does the source give for `CC1(C)C2CCC1(CS(=O)(=O)O)C(=O)C2` (stereo not drawn) [Camphor sulfonic acid] here?
A: 1.2

Q: Which pKa does the source give for `CC(O)(P(=O)(O)O)P(=O)(O)O` [HEDP, (1-hydroxyethane-1,1-diyl)bis(phosphonic acid)] here?
A: 1.35

Q: For `O=S(=O)(O)CCO` [HESA, 2-hydroxyethyl sulphonic acid], which pKa is on record?
A: −1.4
